Among the data in patent publication US20250171438A1 (Agios Pharmaceuticals, Inc., priority 2022, published 2025) are AC50 values, retold here.

As a reminder, the AC50 is the concentration giving half of the maximal activity seen.

This experiment concerns the target T1, human PAH with the R408W mutation (Homo sapiens, UniProt P00439, R408W).
T1 construct: expressed in transfected cells
T1 sequence (P00439 1-452 R408W): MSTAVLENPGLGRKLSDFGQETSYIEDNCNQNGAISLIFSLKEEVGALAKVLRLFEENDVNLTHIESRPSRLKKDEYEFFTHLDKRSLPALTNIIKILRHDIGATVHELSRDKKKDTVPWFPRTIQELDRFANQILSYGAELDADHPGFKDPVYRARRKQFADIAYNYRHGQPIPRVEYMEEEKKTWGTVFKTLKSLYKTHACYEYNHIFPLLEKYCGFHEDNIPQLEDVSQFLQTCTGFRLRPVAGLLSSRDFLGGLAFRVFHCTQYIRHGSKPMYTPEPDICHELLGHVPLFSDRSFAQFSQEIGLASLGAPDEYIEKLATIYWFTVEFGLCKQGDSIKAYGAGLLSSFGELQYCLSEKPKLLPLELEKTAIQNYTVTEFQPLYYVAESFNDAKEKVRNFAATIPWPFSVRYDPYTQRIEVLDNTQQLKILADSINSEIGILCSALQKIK
As to the kind of experiment: Cell Based Phenylalanine Flux Assay. To be noted: A375 cells expressing human R408W PAH; 24 hrs compound incubation; 13C-Tyrosine by LC-MS; average where tested multiple times; read-out: AC50.

Structures are written as SMILES.

On to `O=C(c1ocnc1C(F)F)N1CCc2[nH]cnc2[C@H]1c1nc2ccccc2s1` [Example 1539], for which the AC50 is < 500 nM.

Turning to `O=C(c1ocnc1C(F)F)N1CCc2[nH]cnc2[C@@H]1c1nc2ccccc2s1` [Example 1540, (R)-(4-(benzo[d]thiazol-2-yl)-6,7-dihydro-1H-imidazo[4,5-c]pyridin-5(4H)-yl)(4-(difluoromethyl)oxazol-5-yl)methanone], the AC50 is < 500 nM.

Take `CC(C)(O)c1nc(C(F)(F)F)c(C(=O)N2CCc3[nH]cnc3[C@H]2c2nc3c(F)cccc3s2)o1` [Example 1541, (S)-(4-(4-fluorobenzo[d]thiazol-2-yl)-6,7-dihydro-1H-imidazo[4,5-c]pyridin-5(4H)-yl)(2-(2-hydroxypropan-2-yl)-4-(trifluoromethyl)oxazol-5-yl)methanone]: the AC50 was < 500 nM.

For `CC(C)(O)c1nc(C(F)(F)F)c(C(=O)N2CCc3[nH]cnc3[C@@H]2c2nc3c(F)cccc3s2)o1` [Example 1542, (R)-(4-(4-fluorobenzo[d]thiazol-2-yl)-6,7-dihydro-1H-imidazo[4,5-c]pyridin-5(4H)-yl)(2-(2-hydroxypropan-2-yl)-4-(trifluoromethyl)oxazol-5-yl)methanone], the AC50 was < 500 nM.

Turning to `CC(C)(O)c1nc(C2CC2)c(C(=O)N2CCc3[nH]cnc3[C@H]2c2nc3ccccc3s2)o1` [Example 1543], the AC50 was < 500 nM.

Regarding `CC(C)(O)c1nc(C2CC2)c(C(=O)N2CCc3[nH]cnc3[C@@H]2c2nc3ccccc3s2)o1` [Example 1544, (R)-(4-(benzo[d]thiazol-2-yl)-6,7-dihydro-1H-imidazo[4,5-c]pyridin-5(4H)-yl)(4-cyclopropyl-2-(2-hydroxypropan-2-yl)oxazol-5-yl)methanone], the AC50 lay within 1000 to 5000 nM.

Take `Cc1ncoc1C(=O)N1C[C@H](C)c2[nH]cnc2[C@@H]1c1nc2ccccc2s1` [Example 1545, ((4R,7S)-4-(benzo[d]thiazol-2-yl)-7-methyl-1,4,6,7-tetrahydro-5H-imidazo[4,5-c]pyridin-5-yl)(4-methyloxazol-5-yl)methanone]: the AC50 is > 5000 nM.

As to `Cc1ncoc1C(=O)N1C[C@H](C)c2[nH]cnc2[C@H]1c1nc2ccccc2s1` [Example 1546, ((4S,7S)-4-(benzo[d]thiazol-2-yl)-7-methyl-1,4,6,7-tetrahydro-5H-imidazo[4,5-c]pyridin-5-yl)(4-methyloxazol-5-yl)methanone], the AC50 lay in the range of 500 to 1000 nM.

On to `Cc1ncoc1C(=O)N1C[C@@H](C)c2[nH]cnc2[C@H]1c1nc2ccccc2s1` [Example 1547, ((4S,7R)-4-(benzo[d]thiazol-2-yl)-7-methyl-6,7-dihydro-1H-imidazo[4,5-c]pyridin-5(4H)-yl)(4-methyloxazol-5-yl)methanone], for which the AC50 was in the range of 1000 to 5000 nM.

Consider `Cc1ncoc1C(=O)N1C[C@@H](C)c2[nH]cnc2[C@@H]1c1nc2ccccc2s1` [Example 1548, ((4R,7R)-4-(benzo[d]thiazol-2-yl)-7-methyl-6,7-dihydro-1H-imidazo[4,5-c]pyridin-5(4H)-yl)(4-methyloxazol-5-yl)methanone], for which the AC50 is > 5000 nM.

Regarding `Cc1cc(C2(C(=O)N3CCc4[nH]cnc4[C@H]3c3nc4ccccc4s3)CC2)on1` [Example 1549], the AC50 was < 500 nM.

Regarding `Cc1cc(C2(C(=O)N3CCc4[nH]cnc4[C@@H]3c3nc4ccccc4s3)CC2)on1` [Example 1550, (R)-(4-(benzo[d]thiazol-2-yl)-6,7-dihydro-1H-imidazo[4,5-c]pyridin-5(4H)-yl)(1-(3-methylisoxazol-5-yl)cyclopropyl)methanone], the AC50 lay within 1000 to 5000 nM.

In the case of `C[C@@H]1CN(C(=O)c2ocnc2C2CC2)[C@H](c2nc3c(F)cccc3s2)c2nc[nH]c21` [Example 1551, (4-cyclopropyloxazol-5-yl)((4S,7R)-4-(4-fluorobenzo[d]thiazol-2-yl)-7-methyl-6,7-dihydro-1H-imidazo[4,5-c]pyridin-5(4H)-yl)methanone], the half-maximal activity concentration (AC50) was in the range of 500 to 1000 nM.

As for `C[C@@H]1CN(C(=O)c2ocnc2C2CC2)[C@@H](c2nc3c(F)cccc3s2)c2nc[nH]c21` [Example 1552, (4-cyclopropyloxazol-5-yl)((4R,7R)-4-(4-fluorobenzo[d]thiazol-2-yl)-7-methyl-6,7-dihydro-1H-imidazo[4,5-c]pyridin-5(4H)-yl)methanone], the AC50 was 1000 to 5000 nM.

Turning to `CC(C)(O)c1nc(C(F)(F)F)c(C(=O)N2CCc3[nH]cnc3[C@H]2c2nc3ccccc3s2)o1` [Example 1553], the AC50 is < 500 nM.

For `CC(C)(O)c1nc(C(F)(F)F)c(C(=O)N2CCc3[nH]cnc3[C@@H]2c2nc3ccccc3s2)o1` [Example 1554, (R)-(4-(benzo[d]thiazol-2-yl)-6,7-dihydro-1H-imidazo[4,5-c]pyridin-5(4H)-yl)(2-(2-hydroxypropan-2-yl)-4-(trifluoromethyl)oxazol-5-yl)methanone], the AC50 is < 500 nM.

As for `Cn1cc(C(F)(F)C(=O)N2CCc3[nH]cnc3[C@H]2c2nc3ccccc3s2)cn1` [Example 1555], the AC50 lay in the range of 1000 to 5000 nM.

Take `Cn1cc(C(F)(F)C(=O)N2CCc3[nH]cnc3[C@@H]2c2nc3ccccc3s2)cn1` [Example 1556, (R)-1-(4-(benzo[d]thiazol-2-yl)-6,7-dihydro-1H-imidazo[4,5-c]pyridin-5(4H)-yl)-2,2-difluoro-2-(1-methyl-1H-pyrazol-4-yl)ethanone]: the concentration at half-maximal activity (AC50) is 1000 to 5000 nM.

In the case of `O=C(c1oc(-c2ccccn2)nc1C1CC1)N1CCc2[nH]cnc2[C@@H]1c1nc2cccc(F)c2s1` [Example 1557, (R)-(4-cyclopropyl-2-(pyridin-2-yl)oxazol-5-yl)(4-(7-fluorobenzo[d]thiazol-2-yl)-6,7-dihydro-1H-imidazo[4,5-c]pyridin-5(4H)-yl)methanone], the half-maximal activity concentration (AC50) is 500 to 1000 nM.

As for `O=C(c1oc(-c2ccccn2)nc1C1CC1)N1CCc2[nH]cnc2[C@H]1c1nc2cccc(F)c2s1` [Example 1558], the AC50 is < 500 nM.

With `O=C(c1oc(NC2CC2)nc1C(F)(F)F)N1CCc2[nH]cnc2[C@H]1c1nc2ccccc2s1` [Example 1559], the AC50 is < 500 nM.

With `O=C(c1oc(NC2CC2)nc1C(F)(F)F)N1CCc2[nH]cnc2[C@@H]1c1nc2ccccc2s1` [Example 1560, (R)-(4-(benzo[d]thiazol-2-yl)-6,7-dihydro-1H-imidazo[4,5-c]pyridin-5(4H)-yl)(2-(cyclopropylamino)-4-(trifluoromethyl)oxazol-5-yl)methanone], the AC50 is < 500 nM.

In the case of `O=C(c1oc(C2(O)CCC2)nc1C(F)(F)F)N1CCc2[nH]cnc2[C@H]1c1nc2ccccc2s1` [Example 1565], the AC50 is < 500 nM.

Regarding `O=C(c1oc(C2(O)CCC2)nc1C(F)(F)F)N1CCc2[nH]cnc2[C@@H]1c1nc2ccccc2s1` [Example 1566, (R)-(4-(benzo[d]thiazol-2-yl)-6,7-dihydro-1H-imidazo[4,5-c]pyridin-5(4H)-yl)(2-(1-hydroxycyclobutyl)-4-(trifluoromethyl)oxazol-5-yl)methanone], the half-maximal activity concentration (AC50) is < 500 nM.

Regarding `O=C(c1oc(/C=C/C2CC2)nc1C(F)(F)F)N1CCc2[nH]cnc2[C@H]1c1nc2ccccc2s1` [Example 1567], the AC50 was 500 to 1000 nM.

For the molecule `O=C(c1oc(/C=C/C2CC2)nc1C(F)(F)F)N1CCc2[nH]cnc2[C@@H]1c1nc2ccccc2s1` [Example 1568, (R,E)-(4-(benzo[d]thiazol-2-yl)-6,7-dihydro-1H-imidazo[4,5-c]pyridin-5(4H)-yl)(2-(2-cyclopropylvinyl)-4-(trifluoromethyl)oxazol-5-yl)methanone], the AC50 fell in the range of 1000 to 5000 nM.
